Experimental data reported in ChEMBL document CHEMBL3046756, “Synthesis, anti-inflammatory, and structure antioxidant activity relationship of novel 4-quinazoline” (Med Chem Res, 2013).
The source made the active and inactive calls. No cut-off for these calls is given here.

Key:
[1] = Antioxidant activity assessed as inhibition of linoleic acid peroxidation at 100 mg/l after 24 hr by spectrophotometric analysis; assay type: functional
Mus musculus [2] = experiment: Toxicity in albino Mus musculus (mouse) assessed as increase in heart rate at 650 to 1800 mg/kg, ip measured within 1 to 2 hr; assay type: organism-based; parameters: route intraperitoneal; conditions: in vivo
Mus musculus [3] = experiment: Toxicity in albino Mus musculus (mouse) assessed as change in skin color at 650 to 1800 mg/kg, ip measured within 24 hr; assay type: organism-based; parameters: dose 650-1800 mg/kg, route intraperitoneal; conditions: in vivo
Mus musculus [4] = experiment: Toxicity in albino Mus musculus (mouse) assessed as change in temperature at extremities at 150 to 900 mg/kg, ip measured within 24 hr; assay type: organism-based; parameters: dose 150-900 mg/kg, route intraperitoneal; conditions: in vivo
Mus musculus [5] = experiment: Toxicity in albino Mus musculus (mouse) assessed as change in toes color at 150 to 900 mg/kg, ip measured within 24 hr; assay type: organism-based; parameters: dose 150-900 mg/kg, route intraperitoneal; conditions: in vivo
Mus musculus [6] = experiment: Toxicity in albino Mus musculus (mouse) assessed as change in skin color at 150 to 900 mg/kg, ip measured within 24 hr; assay type: organism-based; parameters: dose 150-900 mg/kg, route intraperitoneal; conditions: in vivo
Mus musculus [7] = experiment: Toxicity in albino Mus musculus (mouse) assessed as change in eye color at 150 to 900 mg/kg, ip measured within 24 hr; assay type: organism-based; parameters: dose 150-900 mg/kg, route intraperitoneal; conditions: in vivo

SMILES	inhibition [1]	Activity (Mus musculus [2])	Activity (Mus musculus [3])	Activity (Mus musculus [4])	Activity (Mus musculus [5])	Activity (Mus musculus [6])	Activity (Mus musculus [7])
COC(=O)c1ccccc1NC(=O)/C=C/c1ccc(O)c(O)c1	Active	Toxic	Toxic	–	–	–	–
O=c1c2ccccc2nc2n1NC(c1ccc(O)c(O)c1)C2 (configuration not stated)	–	–	–	Toxic	Toxic	Toxic	Toxic
